Measured values from PubChem BioAssay (NCI).
Several values for one entry are separate records, joined by “and”; a condition that tells them apart may be missing. Equal entries are not always repeated.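 48-hour exposure; five concentrations; linearly interpolated endpoints. GI50 is the concentration that inhibits growth by half. Definition used: TGI = concentration required for complete inhibition of growth.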

Legend:
Assay in all cases: NCI-60 cell line screen, 48 h
HCC-2998 colon = test system: HCC-2998 colon
HOP-62 NSCLC = test system: HOP-62 NSCLC
K-562 leukemia = test system: K-562 leukemia
LOX IMVI melanoma = test system: LOX IMVI melanoma
OVCAR-8 ovarian = test system: OVCAR-8 ovarian
RPMI-8226 leukemia = test system: RPMI-8226 leukemia
SK-MEL-2 melanoma = test system: SK-MEL-2 melanoma
SNB-75 CNS = test system: SNB-75 CNS
TK-10 renal = test system: TK-10 renal
HS 578T breast = test system: HS 578T breast

Structure (SMILES) | GI50 (HCC-2998 colon) | TGI (HCC-2998 colon) | GI50 (HOP-62 NSCLC) | TGI (HOP-62 NSCLC) | GI50 (K-562 leukemia) | TGI (K-562 leukemia) | GI50 (LOX IMVI melanoma) | TGI (LOX IMVI melanoma) | GI50 (OVCAR-8 ovarian) | TGI (OVCAR-8 ovarian) | GI50 (RPMI-8226 leukemia) | TGI (RPMI-8226 leukemia) | GI50 (SK-MEL-2 melanoma) | TGI (SK-MEL-2 melanoma) | GI50 (SNB-75 CNS) | TGI (SNB-75 CNS) | GI50 (TK-10 renal) | TGI (TK-10 renal) | GI50 (HS 578T breast) | TGI (HS 578T breast)
Fc1cccc(-c2[nH]nc3nc(Nc4cccnc4)sc23)c1 | > 100 µM | > 100 µM | > 100 µM | > 100 µM | 0.421 µM | > 100 µM | 3.68 µM | > 100 µM | 15.7 µM | > 100 µM | 5.79 µM | > 100 µM | 42.2 µM | > 100 µM | > 100 µM | > 100 µM | 31.2 µM | > 100 µM |  | 
CCCN1C(=O)CNC(=O)c2[nH]cnc21 |  | > 100 µM |  | > 100 µM |  | > 100 µM |  | > 100 µM |  | > 100 µM |  | > 100 µM |  | > 100 µM |  | > 100 µM |  | > 100 µM |  | 
O=C(O)c1ccccc1Nc1ccc2nnc(-c3ccncc3)n2n1 | 23.5 µM | 52 µM | 15.4 µM | 33.5 µM | 15.1 µM | > 100 µM | 1.97 µM | 4.1 µM | 8.1 µM | 41.7 µM |  |  | 3.15 µM | 9.08 µM | 12.2 µM | 25 µM | 7.13 µM | 25 µM | 18.3 µM | 53.9 µM
COc1cc(Nc2nc3cc(C(F)(F)F)ccc3nc2C)cc(OC)c1OC |  | 12.6 µM |  | 30.6 µM |  | 20.1 µM |  | 10.9 µM |  | 24.5 µM |  |  |  | 23.6 µM |  | 39 µM |  | 23.3 µM |  | 
C=C[C@H]1C=Cc2c(OC)cccc2[C@@H]1COP1(=S)NC(C)C(c2ccccc2)O1 (stereo partly specified) |  | > 100 µM |  | > 100 µM |  | > 100 µM |  | > 100 µM |  | > 100 µM |  | > 100 µM |  |  |  | > 100 µM |  | > 100 µM |  | 
c1ccc2c(CNCCCCCCCCCCCCNCc3cccc4ccccc34)cccc2c1 |  |  |  | 4.56 µM |  | 2.11 µM |  | 2.52 µM |  | 3.13 µM |  | 2.55 µM |  | 2.93 µM |  | 3.21 µM |  | 4.74 µM |  | 
CCCCCCNCCCNc1c2ccccc2nc2cccc([N+](=O)[O-])c12 |  | 0.021 µM |  | 0.0773 µM and 0.0374 µM |  | 0.0212 µM | 0.044 µM | 0.0818 µM and 0.295 µM |  | 0.136 µM and 0.17 µM |  |  |  | 0.0331 µM and 0.0231 µM | 0.065 µM | 0.181 µM and 0.237 µM | 0.0705 µM | 0.787 µM and 0.512 µM |  | 0.21 µM and 0.434 µM
Cc1ccc(N2C(=O)C(Cl)=C(Cl)C2=O)cc1 |  | > 100 µM |  | > 100 µM |  | 87.4 µM |  | 55.5 µM |  |  |  | 52.8 µM |  | > 100 µM |  | 48.5 µM |  |  |  | 
O=NN(CCCl)C(=O)N[C@H]1CCCC[C@@H]1Cl |  | > 100 µM |  |  |  | > 100 µM |  |  |  | > 100 µM |  | > 100 µM |  | > 100 µM |  | > 100 µM |  | > 100 µM |  | 
COc1cc(/C=C2\C[C@H]3[C@@H]4CC=C5C[C@@H](OC(C)=O)CC[C@]5(C)[C@H]4CC[C@]3(C)[C@H]2OC(C)=O)ccc1OCCN1CCCCC1 | 10.9 µM | 19.9 µM | 8.96 µM | 27.1 µM | 12.8 µM | 43.2 µM | 9.63 µM | 18.5 µM | 13 µM | > 50 µM |  |  | 20.1 µM | > 50 µM |  |  | 10.5 µM | 19.1 µM | 12.1 µM | 42.8 µM
